From patent US9783510B2, “Small molecule mediated transcriptional induction of E-cadherin” (Vanderbilt University, priority 2014, dated 2017)
pEC50: −log10 of the molar value.

system: E-cadherin expression in SW620 cells; assay: E-cadherin expression, in-cell Western (ICW), SW620 cells; type: cell-based; settings: Homo sapiens, SW-620, 24 h, change in expression level of E-cadherin in response to 10 μM compound, 24 hours, SW620 cells
Experimental: SW620 and H520 cells (5×10^4/100 μL) were seeded in a 96-well plate prior to treatment. Cells were treated with 10 μM concentration of synthesized compound in quadruplicate for 24 hours in RPMI 1640 supplemented medium and 100 μg/mL penicillin-streptomycin. The cells were then fixed with 100% methanol for 20 minutes at 4° C. The wells were then washed 2 times with PBS, permeabilized in 2% bovine serum albumin (BSA) and 0.2% TritonX-100 in PBS for 30 minutes at room temperature with gentle agitation, and blocked in LI-COR blocking buffer for 30 minutes at room temperature with gentle agitation. The cells were then incubated with the following primary antibodies: anti-E-Cadherin (1:500) and anti-α-Tubulin (1:1000) diluted in blocking buffer (1:1 dilution in PBS) for 2 hours at room temperature with gentle agitation. The cells were washed 4 times in PBS-T for 5 minutes each, and then incubated with the following secondary antibodies conjugated to a fluorescent entity: IRDye 800-conjugated goat anti-rabbit IgG (1:1000) and IRDye-700-conjugated goat anti-mouse IgG (1:2000) in blocking buffer (1:1 dilution in PBS) with gentle agitation for 1 h at room temperature. The cells were washed 4 times in PBS-T for 5 minutes each followed by a single wash with PBS. All liquid was removed from the wells and the plates were visualized and analyzed on the Odyssey IR imaging system (LI-COR Biosciences).
The assay was further optimized in the following manner. The cells were washed 2 times with PBS, fixed in 100% methanol at room temperature for 15 minutes, and again washed 2 times with PBS. The cells were then incubated with the following primary antibodies: anti-E-Cadherin (1:200) and anti-α-Tubulin (1:2000) diluted in ice cold 2% bovine serum albumin (BSA) and 0.2% TritonX-100 in PBS for 1 hour at room temperature with gentle agitation. The cells were washed 2 times in PBS and then incubated with the following secondary antibodies conjugated to a fluorescent entity: Licor 800-conjugated goat anti-rabbit IgG (1:2000) and IRDye-700-conjugated goat anti-mouse IgG (1:2000) in ice cold 2% BSA and 0.2% TritonX-100 in PBS with gentle agitation for 45 minutes at room temperature. The wells were washed 2 times in PBS, dried, and analyzed as previously mentioned.
N-Acetamidoalkyl-5-arylisoxazole-3-carboxamide analogs were synthesized as described above. Changes in expression level of E-cadherin in response to 10 μM compound in SW620 cells was determined in a cell-based functional assay as described above, and the data are shown in Table III. The compound number corresponds to the compound numbers used in Table II.
EC50 of inducement of E-cadherin expression in SW620 cells was determined in a cell-based functional assay as described above, and the data are shown in Table V. The compound number corresponds to the compound numbers used in Table IV.

Compared with `Cn1cnc(C(=O)NCCCNC(=O)c2cc(-c3cccs3)on2)c1` [Compound 103, N-(3-(1-methyl-1H-imidazole-4-carboxamido)propyl)-5-(thiophen-2-yl)isoxazole-3-carboxamide], `O=C(NCCCNC(=O)c1cc(-c2cccs2)on1)c1ccc(O)cn1` [Compound 41, N-(3-(5-hydroxypicolinamido)propyl)-5-(thiophen-2-yl)isoxazole-3-carboxamide] is lower in fold induction at 10 µM: 3.02 for the first, 2.77 for the second.

Compared with `O=C(NCCCNC(=O)c1cc(-c2ccccc2)on1)c1cscn1` [Compound 33, 5-phenyl-N-(3-(thiazole-4-carboxamido)propyl)isoxazole-3-carboxamide], `O=C(NCCCNC(=O)c1cccc(Cl)n1)c1cc(-c2ccccc2)on1` [Compound 92, N-(3-(6-chloropicolinamido)propyl)-5-phenylisoxazole-3-carboxamide] is lower in fold induction at 10 µM: 3.7 for the first, 3.13 for the second.

First: O=C(NCCCNC(=O)c1cnn[nH]1)c1cc(-c2ccccc2)on1 [Compound 117, N-(3-(1H-1,2,3-triazole-5-carboxamido)propyl)-5-phenylisoxazole-3-carboxamide]
Second: O=C(NCCCNC(=O)c1ncccc1F)c1cc(-c2ccccc2)on1 [Compound 61, N-(3-(3-fluoropicolinamido)propyl)-5-phenylisoxazole-3-carboxamide]
The fold induction at 10 µM of the first is higher: 3.71 for the first, 2.94 for the second.

First: O=C(NCCCNC(=O)c1occc1-c1ccccc1)c1cc(-c2cccs2)on1 [Compound 100, N-(3-(3-phenylfuran-2-carboxamido)propyl)-5-(thiophen-2-yl)isoxazole-3-carboxamide]
Second: O=C(NCCCNC(=O)c1occc1-c1ccccc1)c1cc(-c2ccccc2)on1 [Compound 114, 5-phenyl-N-(3-(3-phenylfuran-2-carboxamido)propyl)isoxazole-3-carboxamide]
The fold induction at 10 µM of the first is lower: 2.37 for the first, 4.7 for the second.

Compared with `Cc1ncccc1C(=O)NCCCNC(=O)c1cc(-c2ccccc2)on1` [Compound 65, N-(3-(2-methylnicotinamido)propyl)-5-phenylisoxazole-3-carboxamide], `O=C(NCCNC(=O)c1cc(-c2ccccc2)on1)c1cccnc1` [Compound 3, N-(2-(nicotinamido)ethyl)-5-phenylisoxazole-3-carboxamide] is higher in fold induction at 10 µM: 2.05 for the first, 3.05 for the second.

Going from `O=C(NCCNC(=O)c1cc(-c2ccccc2)on1)c1cc(O)cc(Br)c1` [Compound 10, N-(2-(3-bromo-5-hydroxybenzamido)ethyl)-5-phenylisoxazole-3-carboxamide] to `O=C(NCCCNC(=O)c1cc2ccccc2o1)c1cc(-c2cccs2)on1` [Compound 85, N-(3-(benzofuran-2-carboxamido)propyl)-5-(thiophen-2-yl)isoxazole-3-carboxamide], the fold induction at 10 µM rises from 2.35 to 3.26.

Compared with `O=C(NCCCNC(=O)c1cccs1)c1cc(-c2cccs2)on1` [Compound 75, 5-(thiophen-2-yl)-N-(3-(thiophene-2-carboxamido)propyl)isoxazole-3-carboxamide], `COc1ncccc1C(=O)NCCCNC(=O)c1cc(-c2cccs2)on1` [Compound 52, N-(3-(2-methoxynicotinamido)propyl)-5-(thiophen-2-yl)isoxazole-3-carboxamide] is higher in fold induction at 10 µM: 3.05 for the first, 3.99 for the second.

Compared with `O=C(NCCCNC(=O)c1cnc2ccccn12)c1cc(-c2cccs2)on1` [Compound 73, N-(3-(imidazo[1,2-a]pyridine-3-carboxamido)propyl)-5-(thiophen-2-yl)isoxazole-3-carboxamide], `O=C(NCCCNC(=O)c1nc2ncccn2n1)c1cc(-c2cccs2)on1` [Compound 108, N-(3-([1,2,4]triazolo[1,5-a]pyrimidine-2-carboxamido)propyl)-5-(thiophen-2-yl)isoxazole-3-carboxamide] is lower in fold induction at 10 µM: 3.04 for the first, 2.45 for the second.

same assay, conditions: Homo sapiens, SW-620; inducement of E-cadherin expression in SW620 cells

`O=C(NCCNC(=O)c1cc(-c2ccccc2)on1)c1cccnc1` [Compound 3, N-(2-(nicotinamido)ethyl)-5-phenylisoxazole-3-carboxamide] and `O=C(NCCCNC(=O)c1occc1-c1ccccc1)c1cc(-c2ccccc2)on1` [Compound 114, 5-phenyl-N-(3-(3-phenylfuran-2-carboxamido)propyl)isoxazole-3-carboxamide] are within 0.2 log units of each other in pEC50: 5.15 for the first, 5.20 for the second.

same assay, conditions: change in expression level of E-cadherin in response to 10 μM compound, 24 hours, SW620 cells

With “N-(3-(5-chlorofuran-2-carboxamido)propyl)-5-phenylisoxazole-3-carboxamide [Compound 113]” the “fold change SW620 ICW” value was 4.09 fold.

same assay, conditions: inducement of E-cadherin expression in SW620 cells

In the case of “N-(3-(5-chlorofuran-2-carboxamido)propyl)-5-phenylisoxazole-3-carboxamide [Compound 113]”, the pEC50 was 5.34.
